Literature values, collected in patent US6800300B1, “Method for treating autoimmune and alloimmune diseases” (Vasogen Ireland Limited, priority 2000, dated 2004).
Structures can show the parent of a compound that is named as a salt.

What was measured:
[1] = test system: TNF-α production by lymphocytes and macrophages
serum TNF = settings: endotoxin-induced shock rat model

Compound | production of TNF-α [1] | serum TNF concentrations (serum TNF)
COc1ccc(C2CNC(=O)C2)cc1OC1CCCC1 (centres unmarked) [4-(3-cyclopentyloxy4-methoxyphenyl)-2-pyrrolidone] | down-regulate the production of TNF-α | 
C[C@H](Cc1ccccc1)Nc1ncnc2c1ncn2[C@@H]1O[C@H](CO)[C@@H](O)[C@H]1O [R-phenylisopropyladenosine (R-PIA), R-phenylisopropyladenosine] |  | reduce serum TNF concentrations
CC(=O)O[C@H]1C[C@@]2(C)[C@@H](C[C@@H](O)[C@H]3[C@@]4(C)CC[C@@H](O)[C@@H](C)[C@@H]4CC[C@@]32C)/C1=C(\CCC=C(C)C)C(=O)O [fusidic acid (sodiun salt), fusidic acid] |  | reduce serum TNF concentrations
N=C(N)c1ccc(OCCCCCOc2ccc(C(=N)N)cc2)cc1 [pentamidine (isethionate), pentamidine] |  | reduce serum TNF concentrations
CC(=O)CCCCn1c(=O)c2c(ncn2C)n(C)c1=O [pentoxifylline] |  | reduce serum TNF concentrations
